In US20040023998A1, “Novel crystals of 1,3,4-oxadiazole derivatives, process for producing the crystals and medicines containing the same as the active ingredient” (priority 2000, published 2004):
In brackets after ≈: the same amount, converted by molar mass.

Assays:
[1] = From the text: Moreover, for removing tetrahydrofuran in this Type-1 crystals and obtaining Type-1 crystals, it is necessary to reflux them in ethanol.
[2] = Solubility of compound of the present invention in various solvents (saturated solution, HPLC); assay type: physicochemical
Description: The compound of the present invention was added to various solvents so that a saturated state was achieved. Each mixture was stirred for 30 seconds by means of a laboratory mixer and then allowed to stand for 4 minutes and 30 seconds. The stirring and standing operations were repeated seven times. The mixture was centrifuged at 3000 rpm for 15 minutes and isoamyl 4-hydroxybenzoate was added as an internal standard to the resulting supernatant. Furthermore, acetonitrile was added to the supernatant to form a sample solution. A portion (8 μL) of each solution was analyzed using high performance liquid chromatography (HPLC) under the following conditions to determine its concentration by the internal standard method, and thereby solubility was calculated. Additionally, pH at the dissolution was measured.
HPLC measuring conditions
Eluent: 20 mmol/L aqueous potassium dihydrogen phosphate solution (pH 8.0, sodium hydroxide)/acetonitrile=65/35
As the buffer (buffer solution) in Table 5, Briton-Robinson Buffer having an ionic strength of 0.2 was used.

[3] = Toxicity
[4] = Stability test (storage of solid, residual ratio by HPLC); assay type: physicochemical; conditions: all storage conditions of Table 6
Description: The compound of the present invention (about 50 mg) was weighed in a test tube and stored under the following conditions. The stored sample was analyzed using high performance liquid chromatography (HPLC) to calculate its residual ratio by the internal standard method.
Condition 1: 60° C., sealed, 1 month;
Condition 2: 40° C., open, 75%RH (relative humidity), 3 months;
Condition 3: 40° C., sealed, 6 months;
Condition 4: 25° C., open, 60%RH (relative humidity), 12 months;
Condition 5: 5° C., sealed, 12 months;
The HPLC measurement was carried out under the same conditions as in Example 2 described above.

Row | solubility at 35 min ([2]; aqueous buffer, thermodynamic from solid, Buffer pH 3.0 (Briton-Robinson, ionic strength 0.2), pH at dissolution 3.0) | solubility at 35 min ([2]; aqueous buffer, thermodynamic from solid, Buffer pH 5.0 (Briton-Robinson, ionic strength 0.2), pH at dissolution 5.0) | solubility at 35 min ([2]; aqueous buffer, thermodynamic from solid, Buffer pH 7.0 (Briton-Robinson, ionic strength 0.2), pH at dissolution 7.0) | solubility at 35 min ([2]; aqueous buffer, thermodynamic from solid, Buffer pH 9.0 (Briton-Robinson, ionic strength 0.2), pH at dissolution 8.6) | solubility at 35 min ([2]; organic solvent or mixture, thermodynamic from solid, solvent: Acetonitrile) | solubility at 35 min ([2]; organic solvent or mixture, thermodynamic from solid, solvent: Ethanol) | solubility at 35 min ([2]; organic solvent or mixture, thermodynamic from solid, solvent: Methanol) | solubility at 35 min ([2]; organic solvent or mixture, thermodynamic from solid, solvent: Octanol) | solubility at 35 min ([2]; pH 7.3, thermodynamic from solid, solvent: Purified water, pH at dissolution 7.3) | Stability (conclusion from Table 6) [4] | Compound | Stability of the form in water [1] | Toxicity [3]
1 |  |  |  |  |  |  |  |  |  |  | CC(C)C(NC(=O)Cn1c(-c2ccccc2)ncc(N)c1=O)C(=O)c1nnc(C(C)(C)C)o1 (racemic) [Type-1 crystals, 2-[5-Amino-6-oxo-2-phenyl-1,6-dihydro-1-pyrimidyl]-N-[1-(2-[5-t-butyl-1,3,4-oxadiazolyl]carbonyl)-2-(R,S)-methylpropyl]acetamide, reference compound] | promptly results in precipitation of Type-2 crystals | 
2 | 0.122 mg/mL (≈ 270 µM) | 0.104 mg/mL (≈ 230 µM) | 0.094 mg/mL (≈ 208 µM) | 0.045 mg/mL (≈ 99.4 µM) | 19.1 mg/mL (≈ 42200 µM) | 7.29 mg/mL (≈ 16100 µM) | 33.6 mg/mL (≈ 74300 µM) | 0.71 mg/mL (≈ 1570 µM) | 0.073 mg/mL (≈ 161 µM) | sufficiently stable | CC(C)C(NC(=O)Cn1c(-c2ccccc2)ncc(N)c1=O)C(=O)c1nnc(C(C)(C)C)o1 (racemic) [compound of the present invention, 2-[5-amino-6-oxo-2-phenyl-1,6-dihydro-1-pyrimidyl]-N-[1-(2-[5-t-butyl-1,3,4-oxadiazolyl]carbonyl)-2-(R,S)-methylpropyl]acetamide] |  | sufficiently low toxicity
